Data as given in PMC9405123, “Design, Synthesis and Mechanistic Studies of Novel Isatin-Pyrazole Hydrazone Conjugates as Selective and Potent Bacterial MetAP Inhibitors” (Antibiotics, 2022).
Values after ≈ are worked out from the molar mass of the structure shown.

What was measured:
P. aeruginosa [1] = assay: Combination study with AMP or CIP
E. faecalis [2] = assay: Minimum inhibitory concentration (broth dilution); type: cell-based; details: Enterococcus faecalis, alone
B. subtilis [3] = assay: Combination study with AMP or CIP
E. faecalis [4] = assay: Growth inhibition screening (broth dilution); type: cell-based, Enterococcus faecalis; details: Enterococcus faecalis
Experimental: (§1) In vitro screening of the compounds (PS1–14) was performed to assess the antibacterial activity against three Gram-positive (Staphylococcus aureus, Enterococcus faecalis and Bacillus subtilis,) and three Gram-negative (Pseudomonas aeruginosa, Klebsiella pneumonia and Escherichia coli) bacterial strains using the standard NCCLS broth dilution assay. The study’s standard drugs were ciprofloxacin (CIP) and ampicillin (AMP). Compounds were dissolved in a polar solvent (DMSO) and distributed into a 96-well plate in 200 µL of nutrient broth medium, with a final concentration of the compounds […] in each well. The bacterial cells (about 2.5 × 10^5 cells/mL) were inoculated into each well and incubated at 37 °C overnight. After incubation, the growth was measured by turbidity of the culture at 590 nm by spectrophotometer.

K. pneumoniae [5] = assay: Combination study with AMP or CIP
B. subtilis [6] = assay: Growth inhibition screening (broth dilution); type: cell-based, Bacillus subtilis; details: Bacillus subtilis
Experimental: as §1

E. coli [7] = assay: Growth inhibition screening (broth dilution); type: cell-based, Escherichia coli; details: Escherichia coli
Experimental: as §1

S. aureus [8] = assay: Combination study with AMP or CIP
E. coli [9] = assay: Combination study with AMP or CIP
K. pneumoniae [10] = assay: Growth inhibition screening (broth dilution); type: cell-based, Klebsiella pneumonia; details: Klebsiella pneumoniae
Experimental: as §1

S. aureus [11] = assay: Growth inhibition screening (broth dilution); type: cell-based, Staphylococcus aureus; details: Staphylococcus aureus
Experimental: as §1

E. coli [12] = assay: Minimum inhibitory concentration (broth dilution); type: cell-based, Escherichia coli; details: Escherichia coli, alone, read-out: MIC
P. aeruginosa [13] = assay: Growth inhibition screening (broth dilution); type: cell-based, Pseudomonas aeruginosa; details: Pseudomonas aeruginosa
Experimental: as §1

P. aeruginosa [14] = assay: Minimum inhibitory concentration (broth dilution); type: cell-based; details: Pseudomonas aeruginosa, alone
S. aureus [15] = assay: Minimum inhibitory concentration (broth dilution); type: cell-based; details: Staphylococcus aureus, alone
E. faecalis [16] = assay: Combination study with AMP or CIP
K. pneumoniae [17] = assay: Minimum inhibitory concentration (broth dilution); type: cell-based, Klebsiella pneumonia; details: Klebsiella pneumoniae, alone, read-out: MIC
SpMetAP1a = SpMetAP1a (Streptococcus pneumoniae, UniProt Q8DPV1); assay: MetAP enzyme inhibition, Morrison Ki (Met-AMC fluorescence); type: biochemical; details: Morrison Ki method
EfMetAP1a = EfMetAP1a (Enterococcus faecalis, UniProt Q832M5); assay: as above; type: biochemical; details: Morrison Ki method
MtMetAP1c = target: T1, MtMetAP1c (Mycobacterium tuberculosis, UniProt P9WK19); assay: as above; type: biochemical, M. tuberculosis; details: Morrison Ki method
T1 construct: made in house
Experimental: MetAP appears to serve a vital role in the co- or post-translational modification of proteins, making it essential for bacterial cell metabolism and survival. In this study, all enzymes, which were used for this study, including MtMetAP1c (M. tuberculosis), EfMetAP1a (E. faecalis), SpMetAP1a (S. pneumoniae) and HsMetAP1b (H. sapiens) enzymes, were expressed and purified in our lab as previously reported. All compounds prepared 10 mM stocks in DMSO and were used for enzyme inhibition studies. The concentration of each enzyme is adjusted such that they have similar reaction rates (HsMetAp1b, 1 µM; SpMetAP1a, 5 µM; EfMetAP1a, 1 µM; MtMetAP1c, 1 µM;) as reported earlier. All assays were performed in […] reaction containing 50 mM HEPES (pH 7.5 for SpMetAP1a and HsMetAP1b; 8.0 for EfMetAP1a, MtMetAP1c, […]), 150 mM NaCl, and CoCl2 (three molar equivalents of corresponding enzymes). The reaction was started by adding 50 μM L-Methionine 7-amido-4-methyl coumarin (Met-AMC) and continuously monitoring the fluorescence of released 7-amino-4-methyl coumarin (AMC) (380 nm excitation and 460 nm emission) in a microplate multimode reader (TECAN, Austria). The maximum percentage of inhibition against enzymes is calculated at […] compound concentration. […] The Ki values were determined according to the Morrison method using three different concentrations of substrates and ten different concentrations of the inhibitor. All experiments were performed in triplicate. GraphPad Prism version 8.0.0 (San Diego, CA, USA) was used to determine all the kinetic parameters.

T1 sequence (P9WK19 whole entry): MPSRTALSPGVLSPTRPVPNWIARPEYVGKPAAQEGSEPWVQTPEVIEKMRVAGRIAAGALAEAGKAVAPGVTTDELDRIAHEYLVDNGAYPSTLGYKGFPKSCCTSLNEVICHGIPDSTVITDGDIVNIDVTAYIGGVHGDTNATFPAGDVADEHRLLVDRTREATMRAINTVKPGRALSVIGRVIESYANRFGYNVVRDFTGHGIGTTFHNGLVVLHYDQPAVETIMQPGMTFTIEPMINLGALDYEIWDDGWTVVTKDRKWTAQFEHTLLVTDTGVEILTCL
Sequence of SpMetAP1a (Q8DPV1 entry or part of it): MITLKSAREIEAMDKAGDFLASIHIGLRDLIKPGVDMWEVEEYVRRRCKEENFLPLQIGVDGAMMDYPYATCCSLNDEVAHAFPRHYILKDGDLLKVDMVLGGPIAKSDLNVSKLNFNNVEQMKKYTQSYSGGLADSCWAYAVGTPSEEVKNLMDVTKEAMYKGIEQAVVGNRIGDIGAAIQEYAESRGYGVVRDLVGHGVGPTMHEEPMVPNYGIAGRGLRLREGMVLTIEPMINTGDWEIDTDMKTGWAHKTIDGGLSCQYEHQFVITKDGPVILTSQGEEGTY
Sequence of EfMetAP1a (Q832M5 entry or part of it): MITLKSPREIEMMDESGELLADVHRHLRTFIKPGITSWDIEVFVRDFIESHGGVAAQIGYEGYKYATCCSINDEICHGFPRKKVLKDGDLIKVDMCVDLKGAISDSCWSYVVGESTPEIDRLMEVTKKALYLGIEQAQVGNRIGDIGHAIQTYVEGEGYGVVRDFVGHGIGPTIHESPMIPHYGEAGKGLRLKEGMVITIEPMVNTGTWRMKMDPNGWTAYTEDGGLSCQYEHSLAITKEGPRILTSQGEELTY

Row | Structure (SMILES) | inhibition at 250 µg/mL (E. faecalis [4]) [%] | inhibition at 250 µg/mL (B. subtilis [6]) [%] | inhibition at 250 µg/mL (E. coli [7]) [%] | inhibition at 250 µg/mL (K. pneumoniae [10]) [%] | inhibition at 250 µg/mL (S. aureus [11]) [%] | inhibition at 250 µg/mL (P. aeruginosa [13]) [%] | melting point [°C] | Ki (MtMetAP1c) [nM] | further results
1 | O=C(O)c1cn(C2CC2)c2cc(N3CCNCC3)c(F)cc2c1=O [CIP, Ciprofloxacin, reference compound] | 100 | 100 | 100 | 100 | 100 | 100 | – | – | MIC in Combination (P. aeruginosa [1]; combination PS6 + CIP): 0.5 µg/mL; MIC in Combination (P. aeruginosa [1]; combination PS9 + CIP): 0.125 µg/mL; MIC (E. faecalis [2]): 1 µg/mL (≈ 3.02 µM); MIC in Combination (B. subtilis [3]; combination PS6 + CIP): 0.0078 µg/mL; MIC in Combination (B. subtilis [3]; combination PS9 + CIP): 0.5 µg/mL; MIC in Combination (K. pneumoniae [5]; combination PS6 + CIP): 4 µg/mL; MIC in Combination (K. pneumoniae [5]; combination PS9 + CIP): 0.0078 µg/mL; MIC in Combination (S. aureus [8]; combination PS6 + CIP): 0.25 µg/mL; MIC in Combination (S. aureus [8]; combination PS9 + CIP): 0.0156 µg/mL; MIC in Combination (E. coli [9]; combination PS6 + CIP): 0.5 µg/mL; MIC in Combination (E. coli [9]; combination PS9 + CIP): 0.03125 µg/mL; MIC (E. coli [12]): 8 µg/mL (≈ 24.1 µM); MIC (P. aeruginosa [14]): 4 µg/mL (≈ 12.1 µM); MIC (S. aureus [15]): 0.5 µg/mL (≈ 1.51 µM); MIC in Combination (E. faecalis [16]; combination PS6 + CIP): 0.0625 µg/mL; MIC in Combination (E. faecalis [16]; combination PS9 + CIP): 1 µg/mL; MIC (K. pneumoniae [17]): 8 µg/mL (≈ 24.1 µM)
2 | O=C1Nc2ccccc2/C1=N\NC(=O)c1cc(-c2cccc(Br)c2)n[nH]1 [PS1, (E)-3-(3-Bromophenyl)-N′-(2-Oxoindolin-3-YLIDENE)-1H-Pyrazole-5-Carbohydrazide] | 12 | 76 | 40 | 74 | 73 | 4 | 218 to 221 | 2300 ± 270 | Ki (SpMetAP1a): 4480 ± 120 nM; Ki (EfMetAP1a): 2650 ± 340 nM
3 | Cc1ccc2c(c1)/C(=N\NC(=O)c1cc(-c3cccc(Br)c3)n[nH]1)C(=O)N2 [PS2, (E)-3-(3-Bromophenyl)-N′-(5-Methyl-2-Oxoindolin-3-Ylidene)-1H-Pyrazole-5-Carbohydrazide] | 10 | 80 | 86 | 90 | 66 | 87 | 209 to 213 | 4370 ± 140 | Ki (SpMetAP1a): 2980 ± 180 nM
4 | Cc1cc(C)c2c(c1)/C(=N\NC(=O)c1cc(-c3cccc(Br)c3)n[nH]1)C(=O)N2 [PS4, (E)-3-(3-Bromophenyl)-N′-(5,7-Dimethyl-2-Oxoindolin-3-Ylidene)-1H-Pyrazole-5-Carbohydrazide] | 47 | 44 | 80 | 97 | 81 | 90 | 257 to 260 | – | –
5 | O=C1Nc2ccc(Br)cc2/C1=N\NC(=O)c1cc(-c2cccc(Br)c2)n[nH]1 [PS5, (E)-N′-(5-Bromo-2-Oxoindolin-3-Ylidene)-3-(3-Bromophenyl)-1H-Pyrazole-5-Carbohydrazide] | 86 | 34 | 9 | 100 | 100 | 100 | 230 to 233 | 3140 ± 410 | –
6 | O=C1Nc2cc(F)ccc2/C1=N\NC(=O)c1cc(-c2cccc(Br)c2)n[nH]1 [PS7, (E)-3-(3-Bromophenyl)-N′-(6-Fluoro-2-Oxoindolin-3-Ylidene)-1H-Pyrazole-5-Carbohydrazide] | 99 | 100 | 3 | 49 | 10 | 65 | 228 to 230 | – | –
7 | O=C1Nc2ccc(Cl)cc2/C1=N\NC(=O)c1cc(-c2cccc(Br)c2)n[nH]1 [PS8, (E)-3-(3-Bromophenyl)-N′-(5-Chloro-2-Oxoindolin-3-Ylidene)-1H-Pyrazole-5-Carbohydrazide] | 13 | 93 | 84 | 52 | 3 | 100 | 217 to 220 | – | –
8 | O=C1Nc2c(cccc2[N+](=O)[O-])/C1=N\NC(=O)c1cc(-c2cccc(Br)c2)n[nH]1 [PS10, (E)-3-(3-Bromophenyl)-N′-(7-Nitro-2-Oxoindolin-3-Ylidene)-1H-Pyrazole-5-Carbohydrazide] | 85 | 56 | 88 | 52 | 82 | 100 | 215 to 218 | – | –
9 | COc1ccc2c(c1)NC(=O)/C2=N/NC(=O)c1cc(-c2cccc(Br)c2)n[nH]1 [PS12, (E)-3-(3-Bromophenyl)-N′-(6-Methoxy-2-Oxoindolin-3-Ylidene)-1H-Pyrazole-5-Carbohydrazide] | 65 | 85 | 74 | 6 | 100 | 23 | 228 to 230 | 610 ± 30 | Ki (EfMetAP1a): 3250 ± 140 nM
10 | O=C1Nc2c(Cl)cccc2/C1=N\NC(=O)c1cc(-c2cccc(Br)c2)n[nH]1 [PS13, (E)-3-(3-Bromophenyl)-N′-(7-Chloro-2-Oxoindolin-3-Ylidene)-1H-Pyrazole-5-Carbohydrazide] | 36 | 33 | 20 | 74 | 92 | 95 | 205 to 208 | – | –
11 | O=C1Nc2cc([N+](=O)[O-])ccc2/C1=N\NC(=O)c1cc(-c2cccc(Br)c2)n[nH]1 [PS14, (E)-3-(3-Bromophenyl)-N′-(6-Nitro-2-Oxoindolin-3-Ylidene)-1H-Pyrazole-5-Carbohydrazide] | 9 | 86 | 34 | 17 | 33 | 3 | 225 to 228 | 1270 | Ki (SpMetAP1a): 500 ± 30 nM
